From patent US11806359B2 (priority 2020, dated 2023)

How the values were obtained:
[1] = test system: HTLV-1+ SLB1 lymphoma T-cell-line; assay: Cytotoxicity/apoptosis in HTLV-1+ SLB1 cells, Annexin V-FITC/PI staining; assay type: cell-based; conditions: 72 hrs
Protocol: SLB1 T-cells were treated with increasing concentrations (10, 50, and 100 μg/ml) of oleandrin or a N. oleander extract for 72 hrs as described herein. As a negative control, the cells were also treated with increasing amounts (1.5, 7.5, and 15 μg) of the vehicle solution which corresponded to the volumes used in the drug-treated cultures. Cyclophosphamide (50 μM; Sigma-Aldrich)-treated cells were included as a positive control for apoptosis. Then, the samples were washed and stained with Annexin V-FITC and propidium iodide (PI) and analyzed by confocal fluorescence-microscopy. The relative percentages of Annexin V-FITC and/or PI-positive cells were quantified by fluorescence-microscopy and counting triplicate visual fields using a 20× objective lens.
To assess the relative cytotoxicity of the oleandrin compound, extract of N. oleander, or the Vehicle control in treated cell cultures, 2×10^4 HTLV-1+ SLB1 lymphoma T-cells or activated/cultured huPBMCs were plated in 300 μl of complete medium, supplemented with antibiotics, and maintained at 37.0 under 10% CO2 in a humidified incubator. The cultures were treated with either increasing concentrations (10, 50, and 100 μg/ml) of oleandrin or N. oleander extract, or the Vehicle control ([…]) and incubated for 72 hrs. […] The total numbers of cells per field were quantified by microscopy using a DIC phase-contrast filter.

Vero-E6 cells = conditions: African green monkey
SARS-CoV-2 [2] = assay: SARS-CoV-2 genome equivalents in supernatant by qRT-PCR (Example 39); assay type: cell-based; conditions: 24 hours-post infection, four highest doses
Excerpt: The Vero 81 cells described above were subjected to genome analysis determine whether the inhibition of SARS-CoV-2 was at the level of total or infectious particle production. RNA was extracted from the cell culture supernatants of the prophylactic study, and genomic equivalents were quantified via qRT-PCR (Example 39). The prophylactic effect of oleandrin, initially observed via infectious assay, was confirmed at the level of genome equivalents. […]
To quantify genome copies for the samples, 200 μl of sample was extracted with a 5:1 volume ratio of TRIzol LS (Ambion, Carlsbad, Calif.), utilizing standard manufacturers protocols and resuspending in 11 μl water. Extracted RNA were tested for SARS-CoV-2 by qRT-PCR following a previously published assay (26). Briefly, the N gene was amplified using the following primers and probe: forward primer [5′-[…]-3′] (SEQ ID NO. 1); reverse primer [5′-[…]-3′] (SEQ ID NO. 2); and probe [5′-FAM-[…]-TAMRA-3′; (SEQ ID NO. 3)]. […]

SARS-CoV-2 [3] = assay: SARS-CoV-2 treatment post-infection in VERO CCL-81 cells, viral titer (Example 34); assay type: cell-based; conditions: treated at 12 h and 24 h post-infection, no pretreatment

CO[C@H]1C[C@H](O[C@H]2CC[C@@]3(C)[C@H](CC[C@@H]4[C@@H]3CC[C@]3(C)[C@@H](C5=CC(=O)OC5)[C@@H](OC(C)=O)C[C@]43O)C2)O[C@@H](C)[C@@H]1O [oleandrin]
cytotoxicity/apoptosis at the lowest concentration ([1]; 10 μg/ml): did not induce significant cytotoxicity/apoptosis | cytotoxicity compared with the Vehicle control ([1]; treated HTLV-1+ SLB1 cells): not significantly higher than the Vehicle control | concentration at which cellular toxicity appeared (Vero-E6 cells): ≥ 1000 ng/mL | Vero cells remaining viable (Vero-E6 cells; 24 h): about 80% | SARS-CoV-2 genomes in the supernatant (SARS-CoV-2 [2]): significantly decreased | antiviral activity post infection with a single treatment (SARS-CoV-2 [3]): able to exert antiviral activity
